{
  "source": "patent US20210308089A1",
  "about": "“METHODS OF TREATING AND/OR PREVENTING VIRAL INFECTIONS AND/OR DISEASES CAUSED BY VIRUSES IN A SUBJECT IN NEED THEREOF” (priority 2020, published 2021)",
  "key": {"[1]": {"details": "human, in vivo, 1 year", "method": "Additional laboratory tests: Additional laboratory tests were performed and included: • A urine pregnancy test was administered to women of childbearing potential at certain visits as listed in schedule of procedures (Table 1). The urine pregnancy tests were performed at the Research Site utilizing marketed test kits, or at a certified clinical laboratory; • A fasting blood sample (10 mL) for archiving. This sample was collected only at sites in countries where allowed by local regulations and at sites for which approved by the IRB or IEC. The plasma from the archiving sample was stored frozen in 2 separate equal aliquots, and was used at the Sponsor's discretion to perform repeat analyses described in the protocol or to perform other tests related to cardiovascular health; and • Potential non-genetic bioassays were performed, including but not limited to: Apo A1, Apo C3, Apo E, NMR lipid profile (particle size and number), oxidized LDL, Lp(a), Lp-PLA2, serum fatty-acids concentrations, and gamma-glutamyltransferase (GGT).\nIn addition, the following were analyzed as tertiary endpoints for the ITT population: • Relationship between on-treatment hs-CRP and the primary and key secondary endpoints; and • Relationship between on-treatment serum eicosapentaenoic acid (EPA) and the primary and key secondary endpoints. […]"}, "[2]": {"tested_on": "statin-treated hypertriglyceridemic patients with cardiovascular disease or at high risk for cardiovascular disease", "experiment": "REDUCE-IT: time to first occurrence of adjudicated cardiovascular events (primary, secondary, tertiary endpoints), AMR101 4 g/day vs placebo", "assay_type": "in vivo, human", "from_the_text": "The following study, also referred to as the REDUCE-IT clinical trial, was a large cardiovascular (CV) outcome trial designed to assess CV risk reduction benefit of AMR101 treatment (commercially known as VASCEPA®) versus placebo on the 5-point primary composite endpoint: CV death, nonfatal stroke, nonfatal myocardial infarction (MI), coronary revascularizations, or unstable angina requiring hospitalization.\nA multi-center, prospective, randomized, double-blind, placebo-controlled, parallel-group study was performed to evaluate the effect of AMR101 (4 g per day) on cardiovascular health and mortality in hypertriglyceridemic patients with cardiovascular disease or at high risk for cardiovascular disease. The intended expanded indication of the study was treatment with AMR101 as an add-on to statin therapy to reduce the risk of cardiovascular events in patients with clinical cardiovascular disease or with multiple risk factors for cardiovascular disease.\nThe primary objective of this study was, in patients at LDL-C goal while on statin therapy, with established cardiovascular disease (CVD) or at high risk for CVD, and hypertriglyceridemia (e.g., fasting triglycerides(TG) ≥200 mg/dL and <500 mg/dL), to evaluate the effect of AMR101 4 g daily on time from randomization to first occurrence of any component of the composite of the following major CV events: CV death; nonfatal MI (including silent MI); electrocardiograms (ECGs) were performed annually for the detection of silent MIs); nonfatal stroke; coronary revascularization; and unstable angina determined to be caused by myocardial ischemia by invasive/non-invasive testing and requiring emergent hospitalization.\nThe key secondary objective of this study was to evaluate the effect of AMR101 4 g daily on the time from randomization to the first occurrence of the composite of following major CV events: CV death, nonfatal MI (including silent MI), and nonfatal stroke.\nOther secondary objectives for this study were to evaluate the effect of therapy on time from randomization to the first occurrence of the following individual or composite endpoints: composite of CV death or nonfatal MI (including silent MI); fatal or nonfatal MI (including silent MI); non-elective coronary revascularization represented as the composite of emergent or urgent classifications; CV death; unstable angina determined to be caused by myocardial ischemia by invasive/non-invasive testing and requiring emergent hospitalization; fatal or nonfatal stroke; composite of total mortality, nonfatal MI (including silent MI), or nonfatal stroke; and total mortality.\nPrimary Efficacy Endpoint: The primary efficacy endpoint was time from randomization to the first occurrence of the composite of the following clinical events: CV death; nonfatal MI (including silent MI; ECGs were performed annually for the detection of silent MIs); nonfatal stroke; coronary revascularization; and unstable angina determined to be caused by myocardial ischemia by invasive/non-invasive testing and requiring emergent hospitalization. The first occurrence of any of these major adverse vascular events during the follow-up period of the study was included in the incidence.\nSecondary Efficacy Endpoints: The key secondary efficacy endpoint was the time from randomization to the first occurrence of the composite of CV death, nonfatal MI (including silent MI), or nonfatal stroke. […]"}, "[3]": {"details": "REDUCE-IT ITT, listed as AMR101"}, "[4]": {"details": "REDUCE-IT ITT, time to first event"}, "[5]": {"details": "vs placebo, listed as Icosapent Ethyl"}},
  "data": [
    {"smiles": "CC/C=C\\C/C=C\\C/C=C\\C/C=C\\C/C=C\\CCCC(=O)OCC", "note": "[icosapent ethyl, eicosapentaenoic acid ethyl ester]", "values": [
      {"measurement": "EPA between group difference, median % change from baseline", "setting": "[1]", "result": 358.8, "unit": "%"},
      {"measurement": "EPA between group difference, median absolute change from baseline", "setting": "[1]", "result": 114.9, "unit": "µg/mL"},
      {"measurement": "Amputation for PVD: % of patients", "setting": "[2]; REDUCE-IT ITT", "result": "(0.5%)"},
      {"measurement": "Cardiac arrest: % of patients", "setting": "[2]; REDUCE-IT ITT", "result": "(0.5%)"},
      {"measurement": "Cardiac arrhythmias requiring hospitalization of ≥24 hours: % of patients", "setting": "[2]; REDUCE-IT ITT", "result": "(4.6%)"},
      {"measurement": "Cardiovascular death: HR vs placebo", "setting": "[2]; REDUCE-IT ITT", "result": 0.80},
      {"measurement": "Cardiovascular death: patients", "setting": "[2]; REDUCE-IT ITT", "result": 4.3, "unit": "%"},
      {"measurement": "Carotid revascularization: % of patients", "setting": "[2]; REDUCE-IT ITT", "result": "(0.8%)"},
      {"measurement": "Coronary revascularization: % of patients", "setting": "[2]; REDUCE-IT ITT", "result": "(9.2%)"},
      {"measurement": "Elective revascularization: % of patients", "setting": "[2]; REDUCE-IT ITT", "result": "(4.7%)"},
      {"measurement": "Emergent revascularization: % of patients", "setting": "[2]; REDUCE-IT ITT", "result": "(1.0%)"},
      {"measurement": "Hemorrhagic stroke: % of patients", "setting": "[2]; REDUCE-IT ITT", "result": "(0.3%)"},
      {"measurement": "Ischemic stroke: % of patients", "setting": "[2]; REDUCE-IT ITT", "result": "(2.0%)"},
      {"measurement": "New heart failure requiring hospitalization: % of patients", "setting": "[2]; REDUCE-IT ITT", "result": "(3.4%)"},
      {"measurement": "New heart failure: % of patients", "setting": "[2]; REDUCE-IT ITT", "result": "(4.1%)"},
      {"measurement": "Primary endpoint in patients with diabetes at baseline: % of patients", "setting": "[2]; REDUCE-IT ITT", "result": "(18.1%)"},
      {"measurement": "Salvage revascularization: % of patients", "setting": "[2]; REDUCE-IT ITT", "result": "(0.0%)"},
      {"measurement": "Sudden cardiac death: % of patients", "setting": "[2]; REDUCE-IT ITT", "result": "(1.5%)"},
      {"measurement": "Total mortality (death from any cause): patients", "setting": "[2]; REDUCE-IT ITT", "result": 6.7, "unit": "%"},
      {"measurement": "Total mortality: HR vs placebo", "setting": "[2]; REDUCE-IT ITT", "result": 0.87},
      {"measurement": "Transient ischemic attack: % of patients", "setting": "[2]; REDUCE-IT ITT", "result": "(1.6%)"},
      {"measurement": "Urgent revascularization: % of patients", "setting": "[2]; REDUCE-IT ITT", "result": "(4.4%)"},
      {"measurement": "Hemorrhagic stroke: % of patients", "setting": "[2]; [3]", "result": 0.3, "unit": "%"},
      {"measurement": "New heart failure: % of patients", "setting": "[2]; [3]", "result": 4.1, "unit": "%"},
      {"measurement": "Key secondary composite endpoint: HR vs placebo", "setting": "[2]; [4]", "result": 0.74},
      {"measurement": "Primary composite endpoint: HR vs placebo", "setting": "[2]; [4]", "result": 0.75},
      {"measurement": "New onset of diabetes: % of patients", "setting": "[2]; patients with diabetes at baseline excluded", "result": "(3.8%)"},
      {"measurement": "Composite of cardiovascular death or nonfatal myocardial infarction: RRR", "setting": "[2]; vs placebo", "result": 25, "unit": "%"},
      {"measurement": "Composite of total mortality, nonfatal myocardial infarction, or nonfatal stroke: reduction (RRR)", "setting": "[2]; vs placebo", "result": 23, "unit": "%"},
      {"measurement": "Key secondary composite endpoint: relative risk reduction", "setting": "[2]; vs placebo", "result": 26, "unit": "%"},
      {"measurement": "Primary composite endpoint: relative risk reduction", "setting": "[2]; vs placebo", "result": 25, "unit": "%"},
      {"measurement": "Total mortality: reduction (RRR)", "setting": "[2]; vs placebo", "result": 13, "unit": "%"},
      {"measurement": "Key secondary composite endpoint: relative risk reduction", "setting": "[2]; [5]", "result": 26.5, "unit": "%"},
      {"measurement": "Primary composite endpoint: relative risk reduction", "setting": "[2]; [5]", "result": 24.8, "unit": "%"}
    ]}
  ]
}
